From US8633216B2, “Imidazo[1,5-a]pyridine derivatives, method for preparing same and pharmaceutical compositions containing same” (Sanofi, priority 2005, dated 2014)
Where a name gives a salt, the structure may show the parent alone.

Tests used:
[1] = system: level of circulating platelets; assay: Effect on thrombopenia induced by carboplatin in the mouse; assay type: in vivo; details: 150 mg/kg intraperitoneally, balbC mice, at nadir
Text: Thrombopenia remains a pathology for which few effective treatments exist apart from the transfusion of platelet concentrates and thrombopoietin (Kaushansky, K., New Eng. J. Med., (1998), 339, pp. 746-754).
Anticancer chemotherapy constitutes one of the major causes of thrombopenia. One of the agents of chemotherapy, carboplatin, has been widely used to induce thrombopenia in the mouse and to be able thus to characterize the effect of compounds capable of improving the level of platelets, such as, for example, thrombopoietin (Hokom M. M. et al., Blood, (1995), 86, pp. 4486-4492).
150 mg/kg of carboplatin were administered intraperitoneally to balbC mice having a weight of 20 g. A blood sample is taken periodically by retro-orbital puncture and the level of circulating platelets is determined by a hematology automated machine (MS9™ from Melet-Schloesing Laboratoires, Cergy-Pontoise, France). […]
The compounds according to the invention or their solvent (a blank-control) are administered by the oral route for 5 days, the treatment being begun 7 days before the administration of carboplatin. The experiments are carried out on batches comprising 10-12 mice and the results are expressed as a mean±standard error. […]

Structure (SMILES)	melting point	reduction in the level of circulating platelets [1]
COc1cc(C(=O)c2ncc3c(C(=O)O)cccn23)ccc1[N+](=O)[O-] (as salt: Na)	332 °C	–
COC(=O)c1ccc2cnc(C(=O)c3ccc([N+](=O)[O-])c(OC)c3)n2c1	218 °C	–
COc1cc(C(=O)c2ncc3cc(C(=O)O)ccn23)ccc1[N+](=O)[O-]	> 350 °C	–
COc1cc(C(=O)c2ncc3c(C(=O)O)cccn23)ccc1N (as salt: Na)	259 °C	–
COc1cc(C(=O)c2nc(-c3cccc(F)c3)c3ccccn23)ccc1N (as salt: HCl) (hydrate or solvate)	228 °C	–
COc1cc(C(=O)c2nc(Br)c3ccccn23)ccc1N (as salt: HCl) (hydrate or solvate)	204 °C	–
N.N.O=C([O-])C1(C(=O)[O-])CCC1.[Pt+2] [carboplatin]	–	50-60%
COC(=O)c1ccc2cnc(C(=O)c3ccc(N)c(OC)c3)n2c1	179 °C	–
COc1cc(C(=O)c2nc(C#N)c3ccccn23)ccc1N (as salt: HCl)	224 °C	–
COc1cc(C(=O)c2ncc3ccc(C(=O)N[C@@H](CO)C(=O)O)cn23)ccc1N (as salt: Na) (hydrate or solvate)	244 °C	–
COc1cc(C(=O)c2ncc3cc(OCC(=O)O)ccn23)ccc1N (as salt: Na) (hydrate or solvate)	302 °C	–
COc1cccc(C(=O)Nc2nc(C(=O)c3ccc(N)c(OC)c3)n3ccccc23)c1 (as salt: HCl) (hydrate or solvate)	199 °C	–
COc1cccc(-c2nc(C(=O)c3ccc(N)c(OC)c3)n3ccc(C(=O)O)cc23)c1 (as salt: Na) (hydrate or solvate)	307 °C	–
COC(=O)[C@@H](C)NC(=O)c1ccn2c(C(=O)c3ccc(N)c(OC)c3)ncc2c1 (as salt: HCl) (hydrate or solvate)	192 °C	–
COC(=O)c1cccc(-c2nc(C(=O)c3ccc(N)c(OC)c3)n3ccccc23)c1	166 °C	–
COc1cc(C(=O)c2ncc3cc(C(=O)O)ccn23)ccc1N (as salt: HCl) (hydrate or solvate)	268 °C	–
